Holding throughout (assay type): in vivo, SKH-1 hairless mice
The subject of one experiment is MMP2. Briefly: qRT-PCR of skin tissue, MMP 2. The note with it: compared with CON. How it is done:
(§1) In order to investigate the effects of the compositions of the present disclosure on the expression of skin condition-related genes, the present inventors measured the expression levels of collagen type I, matrix metalloproteinase (MMP) 2/3/9, TIMP1/2, hyaluronidase (HYAL), and NF-K in comparison with GAPDH.
(§2) Specifically, about 100 mg of the skin tissue was collected from each mouse of the experimental groups administered the compositions of the present disclosure, and total RNA was isolated using TRIzol reagent. To the isolated RNA was added 50 μM Oligo-(dT) primer and 10 mM dNTP mix, followed by reaction at […] for 5 minutes, and then 5×RT Buffer, 0.1 M DTT, RNaseOUT, SuperScript III, and 25 mM MgCl2 were added with mixing, followed by reaction under conditions of 50° C. for 50 minutes and 85° C. for 5 minutes. RNase H was added and incubated at 37° C. for 20 minutes, thereby synthesizing cDNA from mRNA. To perform POR, 1 μL of the synthesized cDNA was mixed with primers, SYBR green gene expression master mix, and DEPO water, followed by qPCR. The expression level of each target gene was indicated as a relative expression level compared with the NOR group.

Another experiment deals with intestinal microflora. Briefly: Intestinal microflora change analysis (16S rRNA sequencing of caecum). The conditions noted are these: photo-aging model, oral. The source says: The caecum of the mouse was harvested, and subjected to extraction using the i-genome clinic DNA extraction kit. The 16S rRNA library was constructed through the protocol of Illumina 16S V3˜V4 Amplicon (Illumina, San Diego, Calif., USA). The 16S rRNA V3-V4 region was amplified by the first polymerase chain reaction (PCR-1) using the DNA extract, and the PCR product was purified using Agencourt AMPure XP Beads (Beckman Coulter, Inc., Pasadena, Calif., USA), and the washed amplicons were quantified. The PCR product was used as a template for the second PCR (PCR-II) with Illumina dual index adapter sequence, and the final amplicon library was sequenced using the v3, 600 cycle kit and 301 base paired-end chemistry. Sequence data analysis was performed through QIIME 2 software, and then quality filtering was performed. […] The operational taxonomic units (OTUs) of the sequence were analyzed, and the alpha diversity analysis included the Richness, Shannon Index, and Abundance-based Coverage Estimator (ACE) indexes. […] The Kruskal-Wallis test was performed to analyze the diversity of the intestinal microflora and the difference in relative abundance, and the difference in beta diversity was analyzed by the ANOSIM and permutational multivariate analysis of variance (PERMANOVA) tests.

The subject of a further experiment is TIMP1. Briefly: qRT-PCR of skin tissue, TIMP 1. The note with it: compared with CON. How it is done: as §1, §2
For experiment [1], the system named is dorsal skin of the mice, irradiated with ultraviolet light. As to the kind of experiment: Erythema value. The conditions noted are these: UVB-irradiated mice, oral 8 weeks, compared with CON; no significant difference. How it is done:
(§3) A total of seven experimental groups (six animals per group) were defined as a normal control group (normal, not UVB-induced), a negative control group (control, UVB-irradiated), a GOS alone treatment group (GOS 200 mg/kg, UVB-irradiated) and a CTP alone treatment group (CTP 200 mg/kg, UVB-irradiated), a GOS/CTP 1:3 mixed treatment group (GOS/CTP 50:150 mg/kg, UVB-irradiated), a GOS/CTP 1:1 mixed treatment group (100:100 mg/kg, UVB-irradiated), and a GOS/CTP 3:1 mixed treatment group (GOS/CTP 150:50 mg/kg, UVB-irradiated).
(§4) The mice were acclimated for one week, and then photo-aging was induced in the mice of six groups except for the normal control group (NOR) by exposing their dorsal skin to ultraviolet light three times a week for 8 weeks through the ultraviolet irradiation device (BLX-E254, Vilber Lourmat, France) equipped with the UVB-ultraviolet lamp (T-8M; Vilber Lourmat, France) (Hong et al., 2015). As for the dosage of ultraviolet irradiation, the irradiation dosage inside the ultraviolet irradiation device was measured by the UV light meter (UV-340; Lutron, Taiwan) and adjusted, and then the UVB dosage was controlled as shown in Table 1. […]

Experiment [2] shares this test system. Briefly: Skin water-holding capacity (Multi Probe Adapter MPA 6). The conditions noted are these: UVB-irradiated mice, oral 8 weeks, compared with CON. How it is done: as §3, §4
A short description of experiment [3]: Short-chain fatty acid (SCFA) analysis of caecum using GC. How it is done:
The caecum of the mouse was harvested and extracted with methanol, and then the extract was analyzed for SCFA by using gas chromatography (Agilent Technologies, CA, USA) equipped with GC column (DB-FFAP 123-3253, 50 m×0.32 mm×[…]). The column temperature was set to be maintained at 100° C. for 1 minute, raised to 180° C. at a rate of 8° C./min, then raised to 200° C. at a rate of 20° C./min, and then stagnant at 200° C. for 5 min. The SCFA contents in the caecum were analyzed through the standard materials of acetic acid, propionic acid, and butyric acid.

Turning to collagen tripeptide [CTP], the “gene expression level of MMP 2” value in the experiment with MMP2 is “significantly decreased”. In the experiment on intestinal microflora, the Firmicutes/Bacteroidetes ratio entry is given as “tended to increase”. In addition, the “gene expression level of TIMP 1” value in the experiment with TIMP1 is “significantly increased”. In experiment [1], the “change in erythema value before and after ultraviolet irradiation” value is given as “tended to decrease”. Moreover, the “change in water-holding capacity before and after ultraviolet irradiation” value in experiment [2] was “significantly increased”. Further, in experiment [3], the “content of butyric acid” value was “significantly increased”. Also, in experiment [3] (compared with CON), the “content of valeric acid” value is recorded as “significant increase” and the “total short-chain fatty acid content” value is “tendency of increase”. The “content of propionic acid” value in experiment [3] (compared with CON, no significant difference) is on record as “tended to increase”.

The values are drawn from patent publication US20220304356A1, “FUNCTIONAL FOOD COMPOSITIONS AND COSMETIC COMPOSITIONS COMPRISING GALACTO-OLIGOSACCHARIDES, OR GALACTOOLIGOSACCHARIDES AND COLLAGEN TRIPEPTIDE FOR IMPROVING IMMUNE FUNCTIONS AND SKIN CONDITION” (NEO CREMAR CO., LTD., priority 2020, published 2022).
